{"source": "patent US7524505B2", "about": "“Compositions and methods for dual therapies of hair graying and balding in follicular delivery systems” (Schweitzer Biotech Company Ltd., priority 2005, dated 2009)", "tested_on": "hair follicle organ", "assay": "Hair follicle organ cultured in vitro, length of re-grown hair", "type": "cell-based, mice (F1 generation of C3H mated with BALB/C)", "conditions": "hair follicles cultured 12 days in the formula of amino acids and vitamins; length measured at Day 12; FIG. 7", "text": "At the age of 8 weeks, the F1 generation of C3H mated with BALB/C supplies the hair follicle material. By plucking the whiskers by depilating forceps, an anagen phase of the hair follicle can be induced. After three days of whisker plucking, the mice were killed and the hair follicle samples were harvested. Each selected hair follicle was then carefully isolated from the subcutaneous fat and the connective tissue surrounding the capsule was removed under a stereo-dissection microscope with fine forceps. We picked up the intact hair follicles with average size for the next step of culture, and which is in the early anagen stage, which is determined by the hair follicle conformation. Before culture, the hair fibre was first cut out at the surrounding line of the hair follicle to make the length measurement of hair growth much more easily in the future (FIG. 7). […]\nTen hair follicles were cultured in each treatment. […] The length of the hair growth beginning from the cutting site was measured at Day 12. […]\nHair follicle was observed by the Inverted microscope (Lieca DM, IL) and captured with the image by CCD connecting with a computer. The hair length was analyzed with the computer software: Northern Eclipse image system. The data of hair length were analyzed with the Duncan's new multiple range test by one way analysis of variance (ANOVA) using the SigmaStat program (2002)."}
{"substance": "HSCF-II: recombinant fusion of human SCF, linking peptide and IGF-I; 253 amino acids, SEQ ID NO:6", "values": [{"measurement": "effect on hair re-growth (hair length)", "value": "even better than each of SCF and IGF-I"}]}
